Laboratory results as given in patent publication US20210052528A1, “THE USE OF SGC ACTIVATORS AND SGC STIMULATORS FOR THE TREATMENT OF COGNITIVE IMPAIRMENT” (Bayer Aktiengesellschaft, priority 2018, published 2021).
Like-named read-outs stand apart in the source and are kept apart here.

Columns and labels:
healthy mice = conditions: cited from earlier work
male Wistar rats = assay: Object Location Task (OLT), learning and memory improvement in vivo; design: species or system rat; conditions: for memory performance, discrimination index (d2), compared with chance level (d2=0): one-sample t-test; for memory performance, discrimination index (d2), compared to the vehicle condition: one-way ANOVA, LSD t-tests; for dose with the most prominent effect in the memory test: object location task, rats, dose does not decrease blood pressure
Source text: Therefore, the well accepted Object Location Task (OLT) in rats was used. This task allows the assessment of acquisition, consolidation and retrieval of (spatial) information into memory, and is derived from the Object Recognition Task (ORT) (e.g. Ennaceur and Delacour, 1988; Prickaerts et al., 1997).
All experimental procedures were approved by the local ethical committee of Maastricht University for animal experiments and met governmental guidelines. […] The animals were housed individually in a standard IVC cage system on sawdust bedding in an air-conditioned room (about 20° C.). They were kept under a reversed 12/12 h light/dark cycle (lights on from 19.00 to 07.00) and had free access to food and water. Rats were housed and tested in the same room. A radio, which was playing softly, provided background noise in the room. All testing was done between 09.00 and 17.00.
The test compounds were freshly prepared on every experimental day and were dissolved in 0.5% Tylose solution (98% of the end volume) with 2% Tween80.
The order of the treatments was balanced to prevent the data from being distorted by potential object- and side-preferences of the animals.
The Object Location Task (OLT) was derived from the Object Recognition Test (ORT) (Ennaceur and Delacour, 1988). The OLT is a one-trial learning task which allows the assessment of spatial memory, and was performed as described elsewhere (Bruno et al., 2011, Vanmierlo et al., 2011). In the first (learning) trial a rat is put into an arena in which two identical objects are placed. After a certain delay, the rat is given a second trial. In this second trial the rat is again placed in the same arena but now one of the objects has been moved to a different position within the area. In other words, a new spatial arrangement is being used.
The apparatus consisted of a circular arena, 83 cm in diameter. The back-half of the 40 cm high arena wall was made of gray polyvinyl chloride, the front-half consisted of transparent polyvinyl chloride. The light intensity was equal in the different parts of the apparatus, as fluorescent red tubes provided a constant illumination of about 20 lux on the floor of the apparatus. In the first (learning) trial (T1), two objects were placed in a symmetrical position on a distance of about 10 cm from the wall of the left- and the right-side of the arena. In the second (test) trial (T2), one object is moved to a new location which is about 20 cm higher or lower than the original positon. Four different sets of objects were used. The different objects were: 1) a cone consisting of a gray polyvinyl chloride base (maximal diameter 18 cm) with a collar on top made of aluminum (total height 16 cm), 2) a standard 1 L brown glass bottle (diameter 10 cm, height 22 cm) filled with water, 3) a massive metal cube (10.0×5.0×7.5 cm) with two holes (diameter 1.9 cm), and 4) a solid aluminum cube with a tapering top (13.0×8.0×8.0 cm). Rats were unable to displace the objects.
A testing session consisted of two trials. The duration of each trial was 3 min. During the first trial (T1) the apparatus contained two identical objects. Rats were placed in the apparatus facing the wall at the middle of the front (transparent) segment. After the first exploration period the rat was put back in its home cage. Subsequently, after a 24 h delay interval, the rat was put in the apparatus for the second trial (T2). The total time an animal spent exploring each object during T1 and T2 was recorded manually with a personal computer.
Exploration was defined as follows: directing the nose to the object at a distance of no more than 2 cm and/or touching the object with the nose. Sitting on the object was not considered as exploratory behavior. A minimal amount of object interaction is required in order to achieve reliable object discrimination, therefore rats that explore less than 7 s in T1 and/or 9 s in T2 should be excluded from the analyses (Akkerman et al., 2012).

normotensive Wistar rats = assay: Measurement of arterial blood pressure in vivo by radiotelemetry in conscious rats; design: species or system rat; conditions: over 24 hours; for effect on mean arterial blood pressure (MAP) over the dose range: all tested doses compared to vehicle
Procedure: Adult normotensive Wistar rats (Wistar HSD CPB:WU) with a body weight of 250 to 350 g were used for these experimental studies. All animals were housed in individual cages at 22-24° C. ambient temperature and maintained on a 12-hour light/dark cycle with free access to standard laboratory rat chow and water ad libitum. All animal experiments were done in accordance to the current national legislation (German protection of animals act and the EU directives on the protection of animals used for scientific purposes). All performed studies were approved by the regional regulatory authority (LANUV NRW in Germany) and by the institutional animal care and use committee of Bayer AG.
Blood pressure is monitored in freely moving conscious rats by radiotelemetry by a telemetric system (DSI Data Science International, MN, USA). A transmitters (TAI1PA-C40) is implanted in the abdomen of the rat during deep anaesthesia. After recovery of the rats, telemetric signals are registered by a receiver plate (RA1010) and compiled by a computer-based acquisition software (Dataquest A.R.T 4.1 for Windows).
After shaving the abdominal wall of the rat, a midline abdominal incision was made, and the fluid-filled sensor catheter was inserted upstream into the exposed descending aorta between the iliac bifurcation and the renal arteries. According to the DSI guidelines the tip of the telemetric catheter was located just caudal to the renal arteries and secured by tissue adhesive. The transmitter body was affixed to the inner peritoneal wall before closure of abdomen. A two-layer closure of the abdominal incision was used, with individual suturing of the peritoneum and the muscle wall followed by closure of the outer skin. Surgery was performed under aseptic conditions. For postsurgical protection against infections and pain a single dosage of an antibiotic (Oxytetracyclin® 10%, 60 mg/kg s.c., 0.06 ml/100 g body weight, Beta-Pharma GmbH & Co, Germany) and analgesic were injected (Rimadyl®, 4 mg/kg s.c., Pfizer, Germany).
After activation of the implanted transmitters, A.R.T., an on-line data acquisition system, samples data and converts telemetric pressure signals to mm Hg. A barometric pressure reference allows for relation of absolute pressure (relative to vacuum) to ambient atmospheric pressure. Data acquisition software was predefined to sample hemodynamic data for 10-s intervals every 5 minutes. Data collection to file was started 2 hours (T=−2 hours) before drug administration (T=0 hours) and finished after completion of 24 hours (T=24 hours).
Data are expressed as % of baseline values. The baseline value for each animal was calculated and represents the mean blood pressure of the 2 hour period (T=−2 hours to T=0 hours) before the administration of drug or vehicle. For further analysis data were grouped to provide mean for every 0.5 hours. The means of all values obtained for each individual during the period indicated were averaged for each day. Groups were compared by one-way ANOVA with Dunnet's test.
All animals were treated with single oral doses of vehicle or the compound in different dosages (e.g. 0.3, 1.0, 3.0, or 10.0 mg/kg). Application volume was 2 ml/kg body weight. The experiment started at 7:00 a.m. (T=−2 hours), vehicle or drug administration took place at 9.00 a.m. (=0 hours) and registration period was 24 hours. For analysis, data were grouped to provide half-hourly averages.

[1] = 0.1 mg/kg p.o. 30 min before T1, 24 h interval
[2] = 0.3 mg/kg p.o. 30 min before T1, 24 h interval
[3] = 1.0 mg/kg p.o. 30 min before T1, 24 h interval

Structure (SMILES) | spatial memory (healthy mice; higher doses 0.1-0.3 mg/kg) | spatial memory (healthy mice; lower dose 0.01 mg/kg) | spatial memory (healthy mice; single dose of 0.03 mg/kg) | memory performance, discrimination index (d2), compared with chance level (d2=0) (male Wistar rats; [1]) | memory performance, discrimination index (d2), compared with chance level (d2=0) (male Wistar rats; [2]) | memory performance, discrimination index (d2), compared to the vehicle condition (male Wistar rats; [2]) | memory performance, discrimination index (d2), compared with chance level (d2=0) (male Wistar rats; [3]) | memory performance, discrimination index (d2), compared to the vehicle condition (male Wistar rats; [3]) | dose with the most prominent effect in the memory test (male Wistar rats) [mg/kg] | mean arterial blood pressure (MAP) compared to vehicle (normotensive Wistar rats; 0.3 mg/kg single oral dose) | mean arterial blood pressure (MAP) compared to vehicle (normotensive Wistar rats; 1.0 mg/kg single oral dose) | mean arterial blood pressure (MAP) compared to vehicle (normotensive Wistar rats; 3.0 mg/kg single oral dose) | effect on mean arterial blood pressure (MAP) over the dose range (normotensive Wistar rats) | memory performance, discrimination index (d2), compared with chance level (d2=0) (male Wistar rats; 0.03 mg/kg p.o. 30 min before T1, 24 h interval) | memory performance, discrimination index (d2), compared to the vehicle condition (male Wistar rats; [1]) | mean arterial blood pressure (MAP) compared to vehicle (normotensive Wistar rats; 10.0 mg/kg single oral dose)
COC(=O)N(C)c1c(N)nc(-c2nn(Cc3ccccc3F)c3ncccc23)nc1N [Riociguat] | no significant effect | no significant effect | able to enhance spatial memory | – | – | – | – | – | – | – | – | – | – | – | – | –
COC(=O)Nc1c(N)nc(-c2nn(Cc3ccccc3F)c3ncc(F)cc23)nc1N [compound of formula (5), methyl{4,6-diamino-2-[5-fluoro-1-(2-fluorobenzyl)-1H-pyrazolo[3,4-b]pyridine-3-yl]pyrimidin-5-yl}carbamate] | – | – | – | improved memory performance | improved memory performance | significant higher memory performance | improved memory performance | significant higher memory performance | 0.3 | no significant decrease | significantly lowered | significantly lowered | dose-dependent effect | – | – | –
O=C(O)CCCCN(CCc1cc(F)ccc1OCc1ccc(-c2ccc(C(F)(F)F)cc2)cc1)Cc1ccc(C(=O)O)cc1 [compound of formula (2), 4-({(4-carboxybutyl)[2-(5-fluoro-2-{[4′-(trifluoromethyl)[1,1′-biphenyl]-4-yl]methoxy}phenyl)ethyl]amino}methyl)benzoic acid] | – | – | – | improved memory performance | improved memory performance | significant higher memory performance | improved memory performance | significant higher memory performance | – | – | – | – | – | – | – | –
C[C@H]([C@H](C(=O)Nc1cc(C(CC(=O)O)C2CC2)ccc1Cl)c1ccc(Cl)cc1)C(F)(F)F (stereo partly drawn) [compound of formula (1), 3-(4-chloro-3-{[(2S,3R)-2-(4-chlorophenyl)-4,4,4-trifluoro-3-methylbutanoyl]amino}phenyl)-3-cyclopropylpropanoic acid] | – | – | – | improved memory performance | improved memory performance | significant higher memory performance | improved memory performance | significant higher memory performance | 0.3 | – | no significant decrease | no significant decrease | dose-dependent effect | improved memory performance | significant higher memory performance | significantly lowered
